Assay [1] deals with Tau 4R1N oligomer mixture. The assay can be described thus: Cleavage of tau 4R1N by tau 4R2N trimer (SDS-PAGE). In kind it is biochemical. To be noted: overnight at 37° C. How it is done:
Tau oligomer formation leads to gain of toxic function and loss of function of tau monomer degraded by tau 4R2N trimer activity. Lane 1: Tau 4R2N monomer (0.1 μg); Lane 2: 1× Sample Buffer without reductant; Lane 3: 4R2N Trimer, no 4R1N; Lane 4:Tau 4R1N, no tau 4R2N trimer; Lane 5: Tau 4R2N trimer:tau 4R1N, 1:10; Lane 6: Tau 4R2N trimer:tau 4R1N trimer, 1:100; Lane 7: Tau 4R2N trimer:tau 4R1N 1:10. […] The arrows indicate fragments of tau 4R1N that are generated from tau 4R2N trimer protease activity. For the upper arrow, the fragments have the same apparent MW between the two isoforms, the lower arrow fragments differ with the fragment from tau 4R1N migrating faster than the fragment from tau 4R2N;

For a further assay, the system named is tubulin. Description: Cleavage of tubulin by tau 4R2N trimer (SDS-PAGE). Type of assay: biochemical. The note with it: 19.25 hrs at 37° C. The method, then:
In a result not shown, tau 4R2N trimer cut tubulin. In that study, Lane 1—tubulin, no incubation; Lane 2—tubulin incubated without tau; Lane 3—tubulin with tau 4R/2N trimer, no incubation; Lane 4—tubulin incubated with tau 4R2N trimer. […] Incubation of tubulin with tau4R2N trimer led to the formation of tubulin fragments and degradation of tubulin dimer.
Lyophilized tubulin (Cat# TL238, Cytoskeleton Inc.) was suspended in 200 μL buffer for 6 mg/mL solution. Samples were incubated for 19.25 hrs at 37° C. 10 μL 2× Laemmli sample buffer (BME) was added to each sample. Samples heated at 95° C. for 5 min in a thermal cycler with heated lid 5 min prior to loading.

Assay [2] deals with Tau 4R2N (amino acids 335-353) peptide substrate. The assay can be described thus: Peptide digest HPLC assay of tau protease activity. In kind it is biochemical, human. The note with it: with 11 μg tau trimer protease, 20 hr at 37° C. The source says:
N-terminal sequencing of fragments using mass spectrometry identified autoproteolytic cut sites. In particular, cutting at the Lys340-Ser341 (340KS341) cut site occurred readily. Therefore, a 19-amino acid peptide corresponding to amino acids 335G to 353L of tau protein was synthesized that contained the KS cut site (340KS341). The reaction was monitored by reverse-phase high-pressure liquid chromatography (HPLC). […] An asterisk marks a non-specific contaminant that was used as a marker. […] 10 μg of tau peptide 335-353 ([…]) (SEQ ID NO:19) was custom synthesized by Genscript (Piscataway, N.J., USA) and 1 mg was dissolved in 1 mL of buffer (25 mM Tris-HCl pH 7.4). […] 32Karat™ LC-CE System, Beckman Coulter, Inc., (Indianapolis, Ind.)] using a linear gradient of acetonitrile in 0.1% TFA 0-60% acetonitrile on an analytical C18 column (12.5 cm×2.1 mm, 5 μm, (Supelco, Bellefonte, Pa., USA). 30 μg of peptide was incubated without tau protease as a negative control and analyzed with the same method;
Cleavage of the peptide substrate for tau protease, Tau 4R2N (amino acids 335-353) […] (SEQ ID NO.19), was used to monitor activity using reverse-phase HPLC. […] The large peak in the lower trace indicated intact peptide was greatly diminished in the upper trace and replaced with two smaller peaks F1 and F2 that represent fragments generated by TP-210. […]

Assay [3] deals with Human APP 667-676 peptide. Description: Cleavage of APP 667-676 peptide (HPLC). Type of assay: biochemical. The note with it: 20 hr at 37° C. How it is done:
Human APP 667-676 peptide [[…](SEQ ID NO:14) (Anaspec, Fremont, Calif., USA)] was incubated 20 hr at 37° C. with or without […] tau 4R2N trimer protease and analyzed by reverse phase HPLC (SystemGold® 32Karat™ LC-CE System, Beckman Coulter, Inc.) using a linear gradient of 0 to 60% acetonitrile in 0.1% TFA on an analytical C18 column (12.5 cm×2.1 mm, […], Supelco). […] The asterisk indicates an artifactual peak unrelated to the peptide. Tau 4R2N trimer protease cut APP at the penultimate amino acid adjacent to the β-secretase (BACE) cut site thereby generating Aβ(1-42). Tau protease activity has been observed extracellularly in the CSF. Generation of Aβ(1-42) can stimulate inflammation within a neuron leading to BACE up-regulation. Furthermore Aβ(1-42) has been observed in plaques and can be converted to Aβ(1-42) by BACE cleavage of the N-terminal methionine. The implications are that tau protease may be the initial activation step for the amyloid cascade;

As for “tau 4R2N trimer: purified disulfide-mediated trimer species of recombinant human tau 4R2N”, the “cutting of tau 4R1N” value in assay [1] is “cuts tau (4R1N) monomer and tau dimer”. In addition, the cutting of tubulin entry in the assay on tubulin is “cut tubulin”. Further, the “completeness of the peptide cleavage reaction” value in assay [2] is “more than 90%”. Besides, the “cutting of APP 667-676 peptide” value in assay [3] is “cuts APP 667-676 peptide”.

Source of the values: US10597649B2, “Tau protease compositions and methods of use” (Oligomerix, Inc., priority 2011, dated 2020).
